{"source": "patent US8304190B2", "about": "“Pharmacogenomics of blood pressure lowering agents” (Royal College of Surgeons in Ireland, priority 2005, dated 2012)", "key": {"hypertensive patients": {"system": "hypertensive patients", "test": "Clinic blood pressure, change from baseline with study treatment, by renin −5312 C/T genotype", "format": "in vivo, human", "conditions": "for BP lowering by −5312 C/T genotype: clinic and ambulatory BP, T allele carriers versus CC homozygotes", "description": "Tables 2 and 3 show baseline clinic and ambulatory blood pressures, and the changes from baseline with study treatment."}, "clinical": {"test": "clinical", "conditions": "human, plasma, Plasma aliskiren on treatment (trough), after four weeks, median (interquartile range)"}, "plasma renin": {"system": "plasma renin", "conditions": "aliskiren 160-640 mg; unstimulated plasma renin 10-20 pg/ml; cited from earlier work"}, "plasma renin activity [1]": {"system": "plasma renin activity", "test": "Trough plasma renin activity (PRA) after four weeks of treatment", "conditions": "for Effect of therapy on PRA: trough PRA after four weeks of treatment; for PRA Percentage Change / PRA on treatment (trough): Losartan 100 mg, after four weeks, median (interquartile range)"}, "plasma renin activity [2]": {"molecular_target": "T1, plasma renin activity (Homo sapiens, UniProt P00797)", "T1 sequence (P00797 67-406)": "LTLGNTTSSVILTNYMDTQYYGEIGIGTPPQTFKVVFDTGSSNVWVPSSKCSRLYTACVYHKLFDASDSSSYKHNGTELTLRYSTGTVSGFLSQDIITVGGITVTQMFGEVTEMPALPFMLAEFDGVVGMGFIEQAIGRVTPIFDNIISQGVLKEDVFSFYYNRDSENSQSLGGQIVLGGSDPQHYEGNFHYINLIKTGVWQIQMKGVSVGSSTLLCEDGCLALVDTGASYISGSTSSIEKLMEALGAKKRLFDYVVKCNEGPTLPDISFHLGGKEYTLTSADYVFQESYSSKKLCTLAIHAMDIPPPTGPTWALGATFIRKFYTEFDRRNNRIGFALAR", "test": "Trough plasma renin activity (PRA) after four weeks of treatment", "conditions": "after four weeks, median (interquartile range)"}, "[3]": {"conditions": "for Plasma aliskiren on treatment (trough): Aliskiren 300 mg, after four weeks, median (interquartile range)"}, "[4]": {"conditions": "Ren CC homozygotes, Aliskiren 37.5 mg"}, "[5]": {"conditions": "Ren CC homozygotes, Aliskiren 75 mg"}, "[6]": {"conditions": "Ren CC homozygotes, Aliskiren 150 mg"}, "[7]": {"conditions": "Ren CC homozygotes, Aliskiren 300 mg"}, "[8]": {"conditions": "Ren T allele carriers, Aliskiren 37.5 mg"}, "[9]": {"conditions": "Ren T allele carriers, Aliskiren 75 mg"}, "[10]": {"conditions": "Ren T allele carriers, Aliskiren 150 mg"}, "[11]": {"conditions": "Ren T allele carriers, Aliskiren 300 mg"}}, "note": "Entries after “also recorded” stand apart in the source; their conditions may differ. Where two headings read alike, the source gives them in different places."}
{"compound": "COCCCOc1cc(C[C@@H](C[C@H](N)[C@@H](O)C[C@H](C(=O)NCC(C)(C)C(N)=O)C(C)C)C(C)C)ccc1OC", "note": "[Aliskiren]", "values": [{"measurement": "Relationship between dose and BP lowering", "setting": "hypertensive patients; Aliskiren 37.5 to 300 mg daily", "result": "clear dose response relationship"}, {"measurement": "BP lowering by −5312 C/T genotype", "setting": "hypertensive patients", "result": "BP lowering was greatest amongst CC homozygotes; also recorded: amongst CC homozygotes of the −5312 C/T variant"}, {"measurement": "concentration at 4 weeks", "setting": "clinical; 37.5 mg, Ren CC homozygotes, Aliskiren 37.5 mg", "result": 3.1, "unit": "ng/mL"}, {"measurement": "concentration at 4 weeks", "setting": "clinical; 37.5 mg, Ren T allele carriers, Aliskiren 37.5 mg", "result": 2.4, "unit": "ng/mL"}, {"measurement": "concentration at 4 weeks", "setting": "clinical; 75 mg, Ren CC homozygotes, Aliskiren 75 mg", "result": 4.4, "unit": "ng/mL"}, {"measurement": "concentration at 4 weeks", "setting": "clinical; 75 mg, Ren T allele carriers, Aliskiren 75 mg", "result": 3.9, "unit": "ng/mL"}, {"measurement": "concentration at 4 weeks", "setting": "clinical; 150 mg, Ren CC homozygotes, Aliskiren 150 mg", "result": 11, "unit": "ng/mL"}, {"measurement": "concentration at 4 weeks", "setting": "clinical; 150 mg, Ren T allele carriers, Aliskiren 150 mg", "result": 7.1, "unit": "ng/mL"}, {"measurement": "concentration at 4 weeks", "setting": "clinical; 300 mg, Ren CC homozygotes, Aliskiren 300 mg", "result": 31.9, "unit": "ng/mL"}, {"measurement": "concentration at 4 weeks", "setting": "clinical; 300 mg, Ren T allele carriers, Aliskiren 300 mg", "result": 20.5, "unit": "ng/mL"}, {"measurement": "Plasma renin levels in the presence of aliskiren", "setting": "plasma renin", "result": "300 to 600", "unit": "pg/mL"}, {"measurement": "Effect of therapy on PRA", "setting": "plasma renin activity [1]", "result": "suppressed PRA"}, {"measurement": "PRA Percentage Change", "setting": "plasma renin activity [2]; [4]", "result": "−50.0 (−4.5, −62.7) %"}, {"measurement": "PRA on treatment (trough)", "setting": "plasma renin activity [2]; [4]", "result": "0.32 (0.12, 0.77) ng/ml/h"}, {"measurement": "PRA Percentage Change", "setting": "plasma renin activity [2]; [5]", "result": "−61.7 (−32.7, −82.1) %"}, {"measurement": "PRA on treatment (trough)", "setting": "plasma renin activity [2]; [5]", "result": "0.16 (0.09, 0.46) ng/ml/h"}, {"measurement": "PRA Percentage Change", "setting": "plasma renin activity [2]; [6]", "result": "−77.8 (−70.6, −84.8) %"}, {"measurement": "PRA on treatment (trough)", "setting": "plasma renin activity [2]; [6]", "result": "0.10 (0.06, 0.31) ng/ml/h"}, {"measurement": "PRA Percentage Change", "setting": "plasma renin activity [2]; [7]", "result": "−82.5 (−69.9, −86.7) %"}, {"measurement": "PRA on treatment (trough)", "setting": "plasma renin activity [2]; [7]", "result": "0.17 (0.06, 0.42) ng/ml/h"}, {"measurement": "PRA Percentage Change", "setting": "plasma renin activity [2]; [8]", "result": "−63.8 (−11.2, −77.9) %"}, {"measurement": "PRA on treatment (trough)", "setting": "plasma renin activity [2]; [8]", "result": "0.17 (0.06, 0.89) ng/ml/h"}, {"measurement": "PRA Percentage Change", "setting": "plasma renin activity [2]; [9]", "result": "−54.3 (−44.4, −81.5) %"}, {"measurement": "PRA on treatment (trough)", "setting": "plasma renin activity [2]; [9]", "result": "0.42 (0.20, 0.59) ng/ml/h"}, {"measurement": "PRA Percentage Change", "setting": "plasma renin activity [2]; [10]", "result": "−75.7 (−67.4, −82.1) %"}, {"measurement": "PRA on treatment (trough)", "setting": "plasma renin activity [2]; [10]", "result": "0.17 (0.12, 0.47) ng/ml/h"}, {"measurement": "PRA Percentage Change", "setting": "plasma renin activity [2]; [11]", "result": "−82.5 (−69.9, −86.7) %"}, {"measurement": "PRA on treatment (trough)", "setting": "plasma renin activity [2]; [11]", "result": "0.18 (0.06, 0.51) ng/ml/h"}, {"measurement": "Plasma aliskiren on treatment (trough)", "setting": "[3]; Ren CC homozygotes", "result": "31.5 (70.3, 13.5) ng/ml"}, {"measurement": "Plasma aliskiren on treatment (trough)", "setting": "[3]; Ren T allele carriers", "result": "20.5 (41.0, 17.0) ng/ml"}, {"measurement": "Reduction of on treatment plasma aliskiren levels amongst T allele carriers", "setting": "[3]; T allele carriers versus CC homozygotes, trough, after 4 weeks of treatment", "result": "20%-30%"}]}
{"compound": "CCCCc1nc(Cl)c(CO)n1Cc1ccc(-c2ccccc2-c2nn[nH]n2)cc1", "note": "[Losartan]", "values": [{"measurement": "BP lowering by −5312 C/T genotype", "setting": "hypertensive patients", "result": "greatest with Losartan 100 mg daily amongst T allele carriers; also recorded: amongst T allele carriers of the −5312 C/T variant"}, {"measurement": "PRA Percentage Change", "setting": "plasma renin activity [1]; Ren CC homozygotes", "result": "110.32 (15.4, 262.5) %"}, {"measurement": "PRA on treatment (trough)", "setting": "plasma renin activity [1]; Ren CC homozygotes", "result": "1.65 (0.60, 3.20) ng/ml/h"}, {"measurement": "PRA Percentage Change", "setting": "plasma renin activity [1]; Ren T allele carriers", "result": "97.6 (22.2, 363.8) %"}, {"measurement": "PRA on treatment (trough)", "setting": "plasma renin activity [1]; Ren T allele carriers", "result": "1.80 (0.65, 3.30) ng/ml/h"}, {"measurement": "Effect of therapy on PRA", "setting": "plasma renin activity [1]", "result": "increased PRA levels"}]}
